This note sets out measurements from US8263601B2, “Deuterium substituted xanthine derivatives” (CoNCERT Pharmaceuticals, Inc., priority 2009, dated 2012).

Where two headings read alike, the source gives them in different places.

Data set [1] can be described thus: Stability of compounds in rat whole blood (Example 35). The format is in vitro ADME. Conditions: 5 μM, 37° C., 2 hours, FIG. 3. The protocol: This study was performed to evaluate the stability of the title compounds in rat whole blood. Because the ketone (or keto-compound; either pentoxifylline or 409) and its corresponding M-1 alcohol metabolite interconvert, levels of these components were measured after either the keto-compound was added to the blood or the M-1 was added. In other words, in some tests the keto-compound was the starting test compound and in other tests an M-1 metabolite was the starting test compound.
Fresh rat whole blood was obtained from ViviSource Laboratories, Waltham, Mass. Stock solutions (7.5 millimolar (mM)) of test compounds were prepared in dimethyl sulfoxide (DMSO). The 7.5 mM stock solutions were diluted to 500 micromolar (μM) in acetonitrile (ACN). To 990 microliters (μL) of blood pre-warmed to 37° C. for 7 minutes was added 10 μl, of 500 μM test compound to a final concentration of 5 μM. The test compounds were pentoxifylline, (S)-M1 metabolite of pentoxifylline, (R)-M1 metabolite of pentoxifylline, Compound 409, Compound 435(S), and Compound 435(R). The latter two test compounds are deuterated (S)-M1 and (R)-M1 metabolites, respectively, of Compound 409. The reaction mixture was incubated at 37° C. Aliquots (50 μL) were removed at 0 min, 5 min, 15 min, 30 min, 1 hour and 2 hours following the addition of test compound and added to 96-well plates containing 150 μL of ice cold acetonitrile with an internal standard to stop the reaction. The plates were stored at −20° C. for 20 minutes after which 100 μL of 50% acetonitrile/water was added to the wells of the plate prior to centrifugation to pellet precipitated proteins. A 200-μL aliquot of each supernatant was transferred to another 96-well plate and analyzed by LC-MS/MS using an Applied Bio-systems API 4000 mass spectrometer for amounts of the administered compound and its specific metabolite listed in Table 11 below.
The results of this study are depicted in FIGS. 2 and 3.

The nature of data set [2]: Compound stability in human liver microsomes (Example 36). The format is in vitro ADME. Conditions: 30 minutes. The protocol: Example 36 is similar to Example 35 in design, except that human liver microsomes were used instead of rat whole blood to study the metabolism of the compounds.
Human liver microsomes (20 mg/mL) were obtained from Xenotech, LLC (Lenexa, Kans.). β-nicotinamide adenine dinucleotide phosphate, reduced form (NADPH), magnesium chloride (MgCl2), and dimethyl sulfoxide (DMSO) were purchased from Sigma-Aldrich.
Stock solutions containing 7.5 mM of test compounds (pentoxifylline, (S)-M1 metabolite, (R)-M1 metabolite, Compound 409, Compound 435(S), and Compound 435(R)) were prepared in DMSO. The 7.5-mM stock solutions were diluted to 250 μM in acetonitrile (ACN). The human liver microsomes were diluted to 2.5 mg/mL in 0.1 M potassium phosphate buffer, pH 7.4, containing 3 mM MgCl2. The diluted microsomes were added to wells of a 96-well deep-well polypropylene plate in triplicate. 10 μL of the 250 μM test compound was added to the microsomes and the mixture was pre-warmed to 37° C. for 10 minutes. Reactions were initiated by addition of pre-warmed NADPH solution. The final reaction volume was 0.5 mL and contained 2.0 mg/mL human liver microsomes, 5 μM test compound, and 2 mM NADPH in 0.1M potassium phosphate buffer, pH 7.4, and 3 mM MgCl2. The reaction mixtures were incubated at 37° C., and 50-μL aliquots were removed at 0, 5, 10, 20, and 30 minutes and added to shallow-well 96-well plates which contained 50 μL of ice-cold acetonitrile with internal standard to stop the reactions. The plates were stored at 4° C. for 20 minutes after which 100 μL of water was added to the wells of the plate before centrifugation to pellet precipitated proteins. Supernatants were transferred to another 96-well plate and analyzed for the amount of the administered compound and its specific metabolite (listed in Table 11 above) by LC-MS/MS using an Applied Bio-systems API 4000 mass spectrometer.
The results of this study are depicted in FIGS. 4 and 5. […]
A general note: Liver microsomes are a subcellular fraction often used to study metabolism.

Data set [3] can be described thus: Pharmacokinetic study of pentoxifylline and Compound 435(S) in chimps after intravenous dosing (Example 38). It counts as in vivo. The following applies: for AUC(0-inf): IV infusion 75 mg each of pentoxifylline and 435(S) over 10 minutes, species named in label measured in plasma; for % Difference in AUC0-∞ Female (deuterated vs nondeuterated species) / % Difference in AUC0-∞ Male (deuterated vs nondeuterated species): intravenous. On the procedure: Pentoxifylline and Compound 435(S) were separately dissolved in warm (65° C.) saline at a concentration at 10 mg/mL. A 1:1 mixture of the two compounds was then prepared containing a final concentration of 5 mg/mL of each compound and the mixture was then sterile filtered through a 0.2-μm filter.
Two chimps (one male and one female) were used in each of the oral and intravenous studies. Animals were fasted overnight prior to administration of compounds. All animals were sedated with ketamine (approximately 10 mg/kg) and/or telazol (approximately 5 mg/kg) prior to dosing. Intravenous administration was achieved by IV infusion of 75 mg of each compound (15 mL total dosing solution) over 10 minutes. Oral administration was achieved by oral gavage of a single 75 mg dose of each compound (15 mL total dosing solution). Blood samples (6 mL) were collected from the dosed chimps at various times prior to and after dosing. For intravenous administrations blood samples were collected at 0 min (preinfusion), 5 min, 9.5 min (immediately before the end of the infusion), then 6, 15, 30 and 45 min, and 1, 2, 4, 6, 8, 10 and 12 hr after the infusion is stopped. For oral administrations, blood samples were collected at 0 min (predose), 15 and 30 min, and 1, 1.5, 2, 4, 6, 8, 10 and 12 hr postdose.
Blood samples were placed in tubes containing sodium heparin, mixed and stored on ice until centrifuged. Within 30 minutes of collection, plasma was isolated by centrifuging the blood samples and removing an aliquot (200 μL) of the resulting plasma. Each 200-μL aliquot of plasma was mixed with 400 μL acetonitrile and stored at −70° C. until further analysis by LC-MS/MS using an Applied Bio-systems API 4000 mass spectrometer.
The analysis of all samples by LC-MS/MS was performed as described above for the rat plasma samples in Example 37.

A short description of data set [4]: Pharmacokinetic study of 435(S) and other representative compounds in chimps after oral dosing (Example 40). The following applies: species named in label measured in plasma. The format is in vivo. The protocol:
435(S) and representative compounds 121(S), 137(S), 421(S) and 437(S) were separately dissolved in warm (65° C.) water at a concentration [[of 10 mg/mL]]. The same protocol described for Example 39 was then followed for each representative compound.

The mark [5] stands for this setting: female chimp, read-out: AUC0-∞ Female.
Where [6] appears, read: male chimp, read-out: AUC0-∞ Male.
Where [7] appears, read: female, plasma, po, 65 mg, Table 17 i): female chimp, 435(S) and 121(S), read-out: AUC0-12 Female.
Setting [8] is: female, plasma, po, 65 mg, Table 17 ii): female chimp, 435(S) and 137(S), read-out: AUC0-12 Female.
Where [9] appears, read: female, plasma, po, 65 mg, Table 17 iii): female chimp, 435(S) and 421(S), read-out: AUC0-12 Female.
Where [10] appears, read: female, plasma, po, 65 mg, Table 17 iv): female chimp, 435(S) and 437(S), read-out: AUC0-12 Female.
The mark [11] stands for this setting: male, plasma, po, 65 mg, Table 17 i): male chimp, 435(S) and 121(S), read-out: AUC0-12 Male.
The mark [12] stands for this setting: male, plasma, po, 65 mg, Table 17 ii): male chimp, 435(S) and 137(S), read-out: AUC0-12 Male.
The mark [13] stands for this setting: male, plasma, po, 65 mg, Table 17 iii): male chimp, 435(S) and 421(S), read-out: AUC0-12 Male.
[14] abbreviates: male, plasma, po, 65 mg, Table 17 iv): male chimp, 435(S) and 437(S), read-out: AUC0-12 Male.

For `C[C@H](O)CCCCn1c(=O)c2c(ncn2C)n(C)c1=O` [(S)-M1, reference compound], the “Keto-compound (pentoxifylline or Compound 409) formed from M-1 alcohol” value in data set [1] is “appreciable amount of pentoxifylline present”; in data set [2] (human liver microsomes 2.0 mg/mL, 5 μM, NADPH, FIG. 5 columns C and D) it was “significant amount of pentoxifylline present”. Moreover, the “More pentoxifylline produced from (S)-M1 than Compound 409 produced from Compound 435 (S)” value in data set [2] (human liver microsomes) is reported as “Approximately 30%”.
`[2H]c1nc2c(c(=O)n(CCCC([2H])([2H])[C@@]([2H])(O)C([2H])([2H])[2H])c(=O)n2C)n1C([2H])([2H])[2H]` [Compound 435(S), (S)-8-d1-1-(4,4,5,6,6,6-d6-5-Hydroxyhexyl)-3-methyl-7-(methyl-d3)-1H-purine-2,6(3H,7H)-dione]: in data set [1], the “Keto-compound (pentoxifylline or Compound 409) formed from M-1 alcohol” value is “not detected”. Moreover, the AUC(0-inf) in data set [3] (setting [5]) worked out at 1210 ng·h/mL; in data set [3] (setting [6]), 2520 ng·h/mL. For the same compound, in data set [3] (female chimp), the “% Difference in AUC0-∞ Female (deuterated vs nondeuterated species)” value is “+84%”. In addition, the “% Difference in AUC0-∞ Male (deuterated vs nondeuterated species)” value in data set [3] (male chimp) was “+61%”. Also, the AUC(0-t) stood at 133 ng·h/mL in data set [4] (setting [7]); 243 ng·h/mL in data set [4] (setting [8]); 947 ng·h/mL in data set [4] (setting [9]); 1140 ng·h/mL in data set [4] (setting [10]); 354 ng·h/mL in data set [4] (setting [11]); 100 ng·h/mL in data set [4] (setting [12]). Further, the AUC(0-t) in data set [4] (setting [13]) was 881 ng·h/mL; in data set [4] (setting [14]), 686 ng·h/mL.
For `[2H]c1nc2c(c(=O)n(CCCC(=O)O)c(=O)n2C)n1C([2H])([2H])[2H]` [Deuterated M5 (M5a)], the AUC(0-inf) is 632 ng·h/mL in data set [3] (setting [5]) and 428 ng·h/mL in data set [3] (setting [6]). For the same compound, the “% Difference in AUC0-∞ Female (deuterated vs nondeuterated species)” value in data set [3] (female chimp) was −60%. Further, the “% Difference in AUC0-∞ Male (deuterated vs nondeuterated species)” value in data set [3] (male chimp) was −65%. The AUC(0-t) was determined as 670 ng·h/mL in data set [4] (setting [7]); 754 ng·h/mL in data set [4] (setting [8]); 376 ng·h/mL in data set [4] (setting [9]); 306 ng·h/mL in data set [4] (setting [10]); 585 ng·h/mL in data set [4] (setting [11]); 719 ng·h/mL in data set [4] (setting [12]). Moreover, the AUC(0-t) came out at 500 ng·h/mL in data set [4] (setting [13]) and 562 ng·h/mL in data set [4] (setting [14]).
